Measurements as given in paper PMC8778818, “Synthesis, Structural Characterization and Anticancer Activity of New 5-Trifluoromethyl-2-thioxo-thiazolo[4,5-d]pyrimidine Derivatives” (Pharmaceuticals, 2022).
Where “and” joins values, the source holds several entries; their conditions need not be identical. Equal entries are not always repeated. Where two headings read alike, the source gives them in different places.

Columns and labels:
[1] = system: 60 human cancer cell lines; experiment: NCI-60 anticancer screen, full panel; format: cell-based
[2] = system: SK-MEL-2; experiment: NCI-60 screen, Melanoma SK-MEL-2; format: cell-based, human
[3] = system: SW620; experiment: NCI-60 screen, Colon Cancer SW620; format: cell-based, human
[4] = system: T-47D; experiment: NCI-60 screen, Breast Cancer T-47D; format: cell-based
[5] = system: OVCAR-8; experiment: NCI-60 screen, Ovarian Cancer OVCAR-8; format: cell-based, human
[6] = system: NCI-H522; experiment: NCI-60 screen, Non-Small Cell Lung Cancer NCI-H522; format: cell-based, human
[7] = system: ACHN; experiment: NCI-60 screen, Renal Cancer ACHN; format: cell-based, human
[8] = system: NCI-H226; experiment: NCI-60 screen, Non-Small Cell Lung Cancer NCI-H226; format: cell-based, human
[9] = system: 786-0; experiment: NCI-60 screen, Renal Cancer 786-0; format: cell-based
[10] = system: SK-MEL-28; experiment: NCI-60 screen, Melanoma SK-MEL-28; format: cell-based
[11] = system: HT29; experiment: NCI-60 screen, Colon Cancer HT29; format: cell-based, human
[12] = system: CCRF-CEM; experiment: NCI-60 screen, Leukemia CCRF-CEM; format: cell-based, human
[13] = system: TK-10; experiment: NCI-60 screen, Renal Cancer TK-10; format: cell-based, human
[14] = over the panel, values > −4.00 excluded
[15] = Homo sapiens, SK-MEL-2, five doses 10^−4–10^−8 M
[16] = Homo sapiens, SW-620, SW620, five doses 10^−4–10^−8 M
[17] = Homo sapiens, NCI-H522, five doses 10^−4–10^−8 M
[18] = Homo sapiens, five doses 10^−4–10^−8 M
[19] = Homo sapiens, five doses 10^−4–10^−8 M, read-out: log LC50 (the source's name) (converted)

## FC(F)(F)c1nc(Cl)c2sc(=S)n(-c3ccccc3)c2n1 [Compound 3b, 7-chloro-3-phenyl-5-(trifluoromethyl)[1, 3]thiazolo[4,5-d]pyrimidine-2(3H)-thione]
[1]; 10^−5 M one dose, mean over the panel
  Mean Growth %: 29.51%
[1]; Homo sapiens, five doses 10^−4–10^−8 M, mean graph midpoint over all tested cell lines, read-out: log GI50 Mean MG_MID (converted)
  GI50: 2190 nM
[1]; Homo sapiens, five doses 10^−4–10^−8 M, mean graph midpoint over all tested cell lines, read-out: log LC50 Mean MG_MID (converted)
  CC50: 16600 nM
[1]; Homo sapiens, one number printed for the pair, read-out: log LC50 MG_MID/Δ (converted)
  CC50: 16600 nM
[1]; five doses 10^−4–10^−8 M, mean graph midpoint over all tested cell lines
  log TGI Mean MG_MID: −5.30 log M and −5.3 log M
[1]; of N = 58 tested cell lines
  N2: number of cell lines giving positive log TGI (≤−4.01): 58
[1]; [14]
  log GI50 Range: −4.86 to −6.69 log M
  log LC50 Range: −4.03 to −5.82 log M
  log TGI Range: −4.31 to −6.33 log M
[2]; [15]
  GI50: 2000 nM
  LC50: 7240 nM
[2]; SK-MEL-2, 10^−5 M one dose
  Growth of Cells (%): 55.66%
[2]; SK-MEL-2, five doses 10^−4–10^−8 M
  log TGI: −5.42 log M
[3]; [16]
  GI50: 2140 nM
  LC50 (50% lethal concentration): 21400 nM
[3]; SW620, 10^−5 M one dose
  Growth of Cells (%): −63.05%
[3]; SW620, five doses 10^−4–10^−8 M
  log TGI: −5.32 log M
[4]; Homo sapiens, T47D, read-out: log GI50 (converted)
  GI50: 1860 nM
[4]; Homo sapiens, T47D, T-47D, five doses 10^−4–10^−8 M, read-out: log LC50 (the source's name) (converted)
  CC50: 66100 nM
[4]; T-47D, 10^−5 M one dose
  Growth of Cells (%): −35.57%
[4]; T-47D, five doses 10^−4–10^−8 M
  log TGI: −5.32 log M
[5]; Homo sapiens, OVCAR-8, five doses 10^−4–10^−8 M
  GI50: 1950 nM
[5]; Homo sapiens, OVCAR-8, five doses 10^−4–10^−8 M, read-out: log LC50 (the source's name) (converted)
  CC50: > 100000 nM
[5]; OVCAR-8, 10^−5 M one dose
  Growth of Cells (%): 4.40%
[5]; OVCAR-8, five doses 10^−4–10^−8 M
  log TGI: −5.27 log M
[6]; [17]
  GI50: 204 nM
  LC50: 1510 nM
[6]; NCI-H522, 10^−5 M one dose
  Growth of Cells (%): −67.57%
[6]; NCI-H522, five doses 10^−4–10^−8 M
  log TGI: −6.33 log M
[7]; 10^−5 M one dose
  Growth of Cells (%): 27.40%
[7]; [18]
  GI50: 1740 nM
[7]; [19]
  CC50: 6310 nM
[7]; five doses 10^−4–10^−8 M
  log TGI: −5.48 log M
[8]; Homo sapiens, NCI-H226, five doses 10^−4–10^−8 M
  GI50: 13800 nM
[8]; Homo sapiens, NCI-H226, five doses 10^−4–10^−8 M, read-out: log LC50 (the source's name) (converted)
  CC50: > 100000 nM
[8]; NCI-H226, 10^−5 M one dose
  Growth of Cells (%): 89.12%
[8]; NCI-H226, five doses 10^−4–10^−8 M
  log TGI: −4.31 log M
[9]; 786-0, 10^−5 M one dose
  Growth of Cells (%): 90.12%
[9]; 786-0, five doses 10^−4–10^−8 M
  log TGI: −5.42 log M
[9]; Homo sapiens, 786-0, five doses 10^−4–10^−8 M
  GI50: 1950 nM
[9]; Homo sapiens, 786-0, five doses 10^−4–10^−8 M, read-out: log LC50 (the source's name) (converted)
  CC50: 7410 nM
[10]; Homo sapiens, SK-MEL-28, five doses 10^−4–10^−8 M
  GI50: 1950 nM
[10]; Homo sapiens, SK-MEL-28, five doses 10^−4–10^−8 M, read-out: log LC50 (the source's name) (converted)
  CC50: 6460 nM
[10]; SK-MEL-28, 10^−5 M one dose
  Growth of Cells (%): −62.53%
[10]; SK-MEL-28, five doses 10^−4–10^−8 M
  log TGI: −5.45 log M
[11]; HT29, 10^−5 M one dose
  Growth of Cells (%): −71.75%
[11]; HT29, five doses 10^−4–10^−8 M
  log TGI: −5.40 log M
[11]; Homo sapiens, HT-29, HT29, five doses 10^−4–10^−8 M
  GI50: 1910 nM
[12]; 10^−5 M one dose
  Growth of Cells (%): −51.41%
[12]; [18]
  GI50: 933 nM
[12]; [19]
  CC50: > 100000 nM
[12]; five doses 10^−4–10^−8 M
  log TGI: −5.50 log M
[13]; Homo sapiens, TK-10, five doses 10^−4–10^−8 M
  GI50: 2000 nM
[13]; Homo sapiens, TK-10, five doses 10^−4–10^−8 M, read-out: log LC50 (the source's name) (converted)
  CC50: 8320 nM
[13]; TK-10, 10^−5 M one dose
  Growth of Cells (%): 51.24%
